PMC12529303, “A phase I study of AZD8186 in combination with docetaxel in patients with PTEN-mutated or PIK3CB-mutated advanced solid tumors” (ESMO Open, 2025)
Read-outs that look alike come from different tables or passages of the source. One block for each compound: values may come before it.

How the values were obtained:
clinical = details: human, in vivo
Protocol: (§1) Plasma samples were collected at predefined time points based upon the dosing schedules for docetaxel and AZD8186. Cycle 1, day 1 (C1D1) pretreatment baseline measurements were collected for both drugs. For docetaxel, samples were collected as follows: C2D1, pretreatment, 30 min and 55 min after the start of the docetaxel infusion, and 2 h and 5 h after the end of the docetaxel infusion; C2D2, ∼24 h after the start of the docetaxel infusion. For AZD8186, samples were collected as follows: C2D1, pretreatment and 1 h, 3 h, and 6 h after dosing; C2D2, ∼24 h after dose and before the next AZD8186 dose. Starting from cycle 3, a day 1 pretreatment sample was collected at each scheduled visit.
Plasma concentrations of docetaxel were quantified using a validated liquid chromatography and tandem mass spectrometry.[36] The lower limit of quantitation for docetaxel was 0.5 ng/ml. AZD8186 plasma concentration was quantified using a validated ultraperformance liquid chromatography and tandem mass spectrometry method with a 5-2000 ng/ml dynamic range. […]
Statistical analysis for pharmacokinetic (PK) studies was carried out using Graph Pad Prism software version 9.4.1 (GraphPad Software, Inc., Boston, MA). PK parameters were evaluated statistically by Kruskal–Wallis test. Significance was determined at a level of P < 0.05. […]

[1] = tested on: castration-resistant prostate cancer with PTEN loss; set-up: method as in PMID 28645941; details: cited from earlier work
xenograft mouse models = tested on: xenograft mouse models; set-up: method as in PMID 32215185, PMID 25398829; details: cited from earlier work
[2] = tested on: PTEN-null and PI3Kβ-driven preclinical models of breast and prostate cancer; set-up: method as in PMID 32215185, PMID 25398829; details: in vitro; cited from earlier work
[3] = AZD8186 plasma pharmacokinetics (UPLC-MS/MS, noncompartmental); format: in vivo, human; details: for Cmin,ss / Cmax / Tmax / AUC(0-t): plasma; for Cmax / Tmax / AUC(0-t): human, oral, C2D1; for AUC(0-t): read-out: AUC0-6h
Protocol: as §1
Plasma concentrations of docetaxel were quantified using a validated liquid chromatography and tandem mass spectrometry.[36] The lower limit of quantitation for docetaxel was 0.5 ng/ml. AZD8186 plasma concentration was quantified using a validated ultraperformance liquid chromatography and tandem mass spectrometry method with a 5-2000 ng/ml dynamic range. Assays were carried out at the Sidney Kimmel Comprehensive Cancer Center Analytical Pharmacology Core Laboratory at Johns Hopkins University.
Statistical analysis for pharmacokinetic (PK) studies was carried out using Graph Pad Prism software version 9.4.1 (GraphPad Software, Inc., Boston, MA). PK parameters were evaluated statistically by Kruskal–Wallis test. Significance was determined at a level of P < 0.05. Between-group comparisons were conducted using the Wilcoxon signed rank test.

advanced solid tumors = tested on: advanced solid tumors; set-up: method as in PMID 35247924; details: 60 mg b.i.d. and 120 mg b.i.d.; cited from earlier work
[4] = TAC-1B AZD8186 reduced: docetaxel 45 mg/m^2, AZD8186 30 mg, n=1
[5] = TAC1+GF: docetaxel 75 mg/m^2, AZD8186 60 mg, n=3
[6] = TAC-1: docetaxel 75 mg/m^2, AZD8186 60 mg, n=1
[7] = TAC-1B: docetaxel 60 mg/m^2, AZD8186 60 mg, n=1
[8] = TAC-2: docetaxel 75 mg/m^2, AZD8186 120 mg, n=7

Tmax (clinical): 0.92 h
SMILES: CC(=O)O[C@@]12CO[C@@H]1C[C@H](O)[C@@]1(C)C(=O)[C@H](O)C3=C(C)[C@@H](OC(=O)[C@H](O)[C@@H](NC(=O)OC(C)(C)C)c4ccccc4)C[C@@](O)([C@@H](OC(=O)c4ccccc4)[C@H]21)C3(C)C [docetaxel]

SMILES: Cc1c(Cn2c(C)nc3c(C(=O)O)cc(N4CCOCC4)cc32)cccc1C(F)(F)F [GSK2636771]
responses [1]: only anecdotal responses

SMILES: C[C@@H](Nc1cc(F)cc(F)c1)c1cc(C(=O)N(C)C)cc2c(=O)cc(N3CCOCC3)oc12 [AZD8186]
single-agent activity in vivo (xenograft mouse models): limited single-agent activity
PI3K signaling and viability [2]: inhibited PI3K signaling and viability
steady-state trough concentrations across dosing cohorts ([3]; Kruskal-Wallis): not significantly different
Cmin,ss ([3]; TAC1+GF: docetaxel 75 mg/m^2, AZD8186 60 mg, n=1): 176.0 (1) ng/mL
Cmin,ss ([3]; TAC-1: docetaxel 75 mg/m^2, AZD8186 60 mg, mean ± SD, n=3): 149.8 ± 77.2 (3) ng/mL
Cmin,ss ([3]; TAC-1 AZD8186 reduced: docetaxel 60 mg/m^2, AZD8186 30 mg, n=1): 66.0 (1) ng/mL
Cmin,ss [3, 4]: 130.0 (1) ng/mL
Cmin,ss ([3]; TAC-1B: docetaxel 60 mg/m^2, AZD8186 60 mg, mean ± SD, n=3): 83.5 ± 55.1 (3) ng/mL
Cmin,ss ([3]; TAC-2: docetaxel 75 mg/m^2, AZD8186 120 mg, mean ± SD, n=6): 76.8 ± 49.2 (6) ng/mL
Cmax ([3]; TAC1+GF: docetaxel 75 mg/m^2, AZD8186 60 mg): 166 ng/mL
Tmax [3, 5]: 2.76 h
AUC(0-t) [3, 5]: 224 ng·h/mL
Cmax ([3]; TAC-1: docetaxel 75 mg/m^2, AZD8186 60 mg): 464 ng/mL
Tmax [3, 6]: 3.87 h
AUC(0-t) [3, 6]: 1110 ng·h/mL
Cmax [3, 4]: 253 ng/mL
Tmax [3, 4]: 8.43 h
AUC(0-t) [3, 4]: 789 ng·h/mL
Cmax [3, 7]: 285 ng/mL
Tmax [3, 7]: 4.75 h
AUC(0-t) [3, 7]: 808 ng·h/mL
Cmax ([3]; TAC-2: docetaxel 75 mg/m^2, AZD8186 120 mg): 532 ng/mL
Tmax [3, 8]: 4.43 h
AUC(0-t) [3, 8]: 1800 ng·h/mL
tolerability and target inhibition in plasma (advanced solid tumors): tolerable with dose-dependent target inhibition in plasma
